Consider one compound from patent US7001913B1, “Aminopiperidine derivatives as antibacterials” (SmithKline Beecham P.L.C., priority 1999, dated 2006).

In this test the test system is S. aureus Oxford, S. aureus WCUH29, S. pneumoniae 1629, S. pneumoniae N1387, S. pneumoniae ERY 2. Briefly: MIC of test compounds against various organisms. Type of test: cell-based. The conditions noted are these: against one or more of S. aureus Oxford. Here is the method: The MIC (μg/ml) of test compounds against various organisms was determined: S. aureus Oxford, S. aureus WCUH29, S. pneumoniae 1629, S. pneumoniae N1387, S. pneumoniae ERY 2.

Where only a bound is given, the exact number is not on record here.

Consider `CCCCCCCNC1CCN(C[C@H](O)c2ccnc3ccc(OC)cc23)CC1C(N)=O` (mixture of isomers) [Example 4, cis-3-(R/S)-Aminocarbonyl-4-(S/R)-heptylamino-1-[2-(R)-hydroxy-2-(6-methoxyquinolin-4-yl)]ethylpiperidine dioxalate], for which the MIC is at most 1 µg/mL.

For orientation: MIC means the lowest concentration found to suppress growth.
